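The compound was tested at five concentrations on cells cultured in 96-well plates, with a 48-hour exposure period. Abbreviation: GI50, concentration required for 50% inhibition of growth.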 The source made the active and inactive calls. Rule as the data show it: active = GI50 up to about 1.1 µM and inactive = higher.
How the values were obtained:
Experiment in all cases: NCI anticancer screen, dose series, 48 h
TK-10 = test system: TK-10
SK-MEL-28 = test system: SK-MEL-28
OVCAR-3 = test system: OVCAR-3
SF-268 = test system: SF-268
ACHN = test system: ACHN
OVCAR-8 = test system: OVCAR-8
EKVX = test system: EKVX
COLO 205 = test system: COLO 205
HT-29 = test system: HT-29
SK-OV-3 = test system: SK-OV-3
IGROV-1 = test system: IGROV-1
HL-60 = test system: HL-60
RPMI-8226 = test system: RPMI-8226
786-0 = test system: 786-0
SW-620 = test system: SW-620
HCT-15 = test system: HCT-15
NCI-H226 = test system: NCI-H226
NCI-H522 = test system: NCI-H522
SR = test system: SR

Measured: GI50

COc1ccccc1/N=N/C(C(=O)c1ccccc1)C(=O)c1ccccc1
inactive: TK-10 50.2 µM | SK-MEL-28 26.9 µM | OVCAR-3 22.5 µM | SF-268 21.1 µM | ACHN 21.6 µM | OVCAR-8 21.5 µM | EKVX 21.4 µM | COLO 205 33.3 µM | HT-29 25.9 µM | SK-OV-3 45.1 µM | IGROV-1 27 µM | HL-60 7.8 µM | RPMI-8226 12.4 µM | 786-0 24.4 µM | SW-620 25.1 µM | NCI-H226 14.4 µM | NCI-H522 16.1 µM
14.9 µM: HCT-15

C[Si](C)(C)C(CCCCSc1ccccc1)(Sc1ccccc1)Sc1ccccc1
> 100 µM: HCT-15
inactive: TK-10 > 100 µM | SK-MEL-28 > 100 µM | SR > 100 µM | SF-268 > 100 µM | ACHN > 100 µM | OVCAR-8 > 100 µM | EKVX > 100 µM | COLO 205 > 100 µM | SK-OV-3 > 100 µM | HL-60 > 100 µM | RPMI-8226 > 100 µM | 786-0 > 100 µM | SW-620 > 100 µM

CC(=O)NC(CC(C)C)C(=O)NC(Cc1ccccc1)C(=S)N1CCCC1 (centres undefined)
> 100 µM: HCT-15
inactive: TK-10 > 100 µM | SK-MEL-28 > 100 µM | OVCAR-3 > 100 µM | SF-268 > 100 µM | ACHN > 100 µM | OVCAR-8 > 100 µM | EKVX > 100 µM | COLO 205 > 100 µM | HT-29 > 100 µM | SK-OV-3 > 100 µM | IGROV-1 > 100 µM | HL-60 > 100 µM | RPMI-8226 > 100 µM | 786-0 > 100 µM | SW-620 > 100 µM | NCI-H226 74.8 µM | NCI-H522 > 100 µM

O=C(NC1C=Nc2ccccc2NC1=O)c1ccccc1Cl (centres undefined)
33.7 µM: HCT-15
inactive: TK-10 46.2 µM | SK-MEL-28 > 100 µM | SR 31.8 µM | OVCAR-3 28.4 µM | SF-268 51.9 µM | ACHN 39.6 µM | OVCAR-8 43 µM | EKVX 74.8 µM | COLO 205 22.7 µM | HT-29 55.7 µM | SK-OV-3 > 100 µM | IGROV-1 36.8 µM | HL-60 13.5 µM | 786-0 56 µM | SW-620 13.6 µM | NCI-H226 94 µM | NCI-H522 20.1 µM

Cc1ccc(S(=O)(=O)NC(=O)Nc2cc(Cl)c(S(N)(=O)=O)cc2S(N)(=O)=O)cc1
> 100 µM: HCT-15
inactive: TK-10 > 100 µM | SK-MEL-28 > 100 µM | OVCAR-3 > 100 µM | SF-268 > 100 µM | OVCAR-8 > 100 µM | EKVX > 100 µM | COLO 205 > 100 µM | HT-29 > 100 µM | SK-OV-3 > 100 µM | IGROV-1 > 100 µM | HL-60 > 100 µM | RPMI-8226 > 100 µM | 786-0 > 100 µM | SW-620 > 100 µM | NCI-H226 > 100 µM | NCI-H522 > 100 µM

CCOC(=O)[C@H](CCCNC(=O)OC(C)(C)C)NCc1ccc(OC)c(OC)c1
inactive: TK-10 > 100 µM | SK-MEL-28 > 100 µM | SR > 100 µM | OVCAR-3 > 100 µM | SF-268 > 100 µM | ACHN > 100 µM | OVCAR-8 > 100 µM | EKVX > 100 µM | COLO 205 > 100 µM | HT-29 > 100 µM | SK-OV-3 > 100 µM | IGROV-1 > 100 µM | HL-60 > 100 µM | 786-0 > 100 µM | SW-620 > 100 µM | NCI-H226 > 100 µM | NCI-H522 > 100 µM

COC(=O)/C(C)=C(/CCC1(C)OCCO1)O[Si](C)(C)C
inactive: TK-10 > 100 µM | OVCAR-3 > 100 µM | SF-268 > 100 µM | ACHN > 100 µM | OVCAR-8 > 100 µM | EKVX > 100 µM | COLO 205 > 100 µM | HT-29 > 100 µM | SK-OV-3 > 100 µM | IGROV-1 > 100 µM | HL-60 > 100 µM | RPMI-8226 > 100 µM | 786-0 > 100 µM | SW-620 > 100 µM
> 100 µM: HCT-15

CCOC(=O)C1(C)C2=CC=C(O2)C(C)(C)C2=CC=C(O2)C(C)(C)C2=CC=C(O2)C(C)(C)C2=CC=C1O2
> 100 µM: HCT-15
inactive: TK-10 > 100 µM | SK-MEL-28 > 100 µM | SR 68.1 µM | SF-268 > 100 µM | ACHN > 100 µM | OVCAR-8 76.2 µM | EKVX > 100 µM | COLO 205 42.3 µM | HT-29 > 100 µM | SK-OV-3 > 100 µM | IGROV-1 > 100 µM | HL-60 55.3 µM | 786-0 > 100 µM | SW-620 > 100 µM | NCI-H226 > 100 µM | NCI-H522 > 100 µM

Source: ChEMBL document CHEMBL1201862, “PubChem BioAssay data set” (2004)
